Test results as given in patent US20230018014A1, “NOVEL COMPOUNDS AND FORMULATIONS” (PRO-AL MEDICO-TECHNOLOGIES, INC., priority 2019, published 2023).

What was measured:
[1] = tested on: chick embryo chorioallantoic membrane (CAM); test: chick embryo chorioallantoic membrane (CAM) angiogenesis model; format: in vivo
Source text: (§1) This study aimed to investigate the positive protective role of T3, T3 nanoparticles and nanoparticles of T3 and phosphocreatine (PCR) in hypoxia-mediated cardiac cell insults, as well as its influences on vascularization and neuronal protection, under hypoxic condition. […] Mitochondrial function and sarcomere integrity were studied using an ATP-bioluminescence assay, and cardiac Troponin T levels using flow cytometry, respectively.

neonatal cardiomyocytes [2] = test: ATP-bioluminescence assay in isolated neonatal cardiomyocytes under hypoxia; format: cell-based; details: 4% oxygen, 5% CO2, 37° C., 24 hours
Protocol: as §1
(§2) The cells were cultured in a hypoxia incubator with 4% oxygen, 5% CO2 at 37° C. for 24 hours. Following incubation, the cells were collected and compared with those of normal condition. Mitochondrial function and sarcomere integrity were studied using an ATP-bioluminescence assay, and cardiac Troponin T levels using flow cytometry after adding troponin T antibody conjugated with FITC.

[3] = tested on: T3-induced cells (HS5) and PC12 neuronal cells; test: LDH release assay in T3-induced cells (HS5) and PC12 neuronal cells under hypoxia (Example 6); format: cell-based; details: hypoxia 24 hours; Epinephrine 0.5 μM
Protocol: (§3) The cells were then cultured under hypoxia for 24 hours. Results using ATP-bioluminescence and LDH release assays.

neonatal cardiomyocytes [4] = test: neonatal cardiomyocyte contraction under normoxic and hypoxic condition; format: cell-based
[5] = tested on: Neuron-Specific Enolase (NSE); test: Neuron-Specific Enolase ELISA in pig blood plasma after cardiac arrest and resuscitation; format: in vivo; details: 2 hours post-ROSC
Protocol: The blood samples were collected from pigs subjected to cardiac arrest and resuscitation as described in Example 7. […] At 2 hours post-ROSC, blood samples were collected from a peripheral vein into tubes with EDTA and centrifuged for 15 minutes. The plasma samples were then used for the NSE assay based on the manufacturer's instructions.

neonatal cardiomyocytes [6] = test: cardiac Troponin T levels by flow cytometry in neonatal cardiomyocytes under hypoxia; format: cell-based; details: 4% oxygen, 5% CO2, 37° C., 24 hours
Protocol: as §1, §2

swine = test: porcine cardiac arrest model; format: in vivo
Protocol: In this study, swine were subjected to 7 minutes of cardiac arrest followed by manual CPR for up to 20 minutes with defibrillation every 2 minutes as necessary. […] In animals that achieved ROSC (unassisted systolic BP>80 mmHg for 1 min), further pharmacologic support was limited to 1 additional dose of the selected drug for hypotension. Hemodynamics, left ventricular (LV) function, plasma cardiac troponin I (cTnl) and other parameters were assessed at baseline and for up to 4 hours post-ROSC.

[7] = tested on: T3-induced cells (HS5) and PC12 neuronal cells; test: ATP-bioluminescence in T3-induced cells (HS5) and PC12 neuronal cells under hypoxia (Example 6); format: cell-based; details: hypoxia 24 hours; Epinephrine 0.5 μM
Protocol: as §3

[8] = within the first 5 minutes post-ROSC

bFGF: basic fibroblast growth factor, positive comparator in the CAM model
Branch points (SEM) ([1]; bFGF, dose not given): 115.4 ± 3.2

CNC[C@H](O)c1ccc(O)c(O)c1 [Epinephrine]
cardiac ATP levels (in words) (neonatal cardiomyocytes [2]): close to untreated hypoxic cardiomyocytes | LDH levels (in words) [3]: showed an increase | Contraction/min (neonatal cardiomyocytes [4]; hypoxia): 28 min⁻¹ | Rhythm (neonatal cardiomyocytes [4]; hypoxia): Irregular | Contraction/min (neonatal cardiomyocytes [4]; normoxia): 186 min⁻¹ | Rhythm (neonatal cardiomyocytes [4]; normoxia): Regular | increase of NSE over baseline [5]: 64% | Troponin T levels (in words) (neonatal cardiomyocytes [6]): close to untreated hypoxic cardiomyocytes | higher concentration of cTnl (swine; post-ROSC, versus the nanoparticle groups): 2 fold | rate of ROSC (in words) (swine; swine, 7 minutes of cardiac arrest, intravenous, nanoparticles 0.125 mg/kg, Epinephrine 0.015 mg/kg): higher | survival duration (swine; swine, post-ROSC, up to 4 hours, nanoparticles 0.125 mg/kg, Epinephrine 0.015 mg/kg): 116 ± 26 min | coronary sinus PCO2 compared to vehicle (in words) (swine; [8]): not | coronary sinus pH compared to vehicle (in words) (swine; [8]): not | ATP levels (in words) [7]: increased slightly

N[C@@H](Cc1cc(I)c(Oc2ccc(O)c(I)c2)c(I)c1)C(=O)O [T3, triiodothyronine]
enhanced angiogenesis compared to the control group [1]: ~3 fold | Branch points (SEM) ([1]; 10 μg): 158.4 ± 5.5 | improvement in observed branch points in comparison with bFGF ([1]; T3 10 μg, Nano-T3 1 μg): 37% | contraction levels in cardiomyocytes (in words) (neonatal cardiomyocytes [4]; hypoxia): close to those of the cells under normal conditions
